In general, IC50 refers to the midpoint of a concentration-inhibition curve. Read a high IC50 as weaker potency.

Where two headings read alike, the source gives them in different places.

Results on 26 molecules are retold here after patent US8211929B2, “Pyrimidine derivatives as kinase modulators and method of use” (Exelixis, Inc., priority 2004, dated 2012).

In one test the target is T1, IGF 3P (Homo sapiens, UniProt P08069).
T1 construct: human IGF1R kinase domain residues M954-C1367; made in house; host or cells: baculovirus expression (insect cells)
T1 sequence (P08069 954-1367): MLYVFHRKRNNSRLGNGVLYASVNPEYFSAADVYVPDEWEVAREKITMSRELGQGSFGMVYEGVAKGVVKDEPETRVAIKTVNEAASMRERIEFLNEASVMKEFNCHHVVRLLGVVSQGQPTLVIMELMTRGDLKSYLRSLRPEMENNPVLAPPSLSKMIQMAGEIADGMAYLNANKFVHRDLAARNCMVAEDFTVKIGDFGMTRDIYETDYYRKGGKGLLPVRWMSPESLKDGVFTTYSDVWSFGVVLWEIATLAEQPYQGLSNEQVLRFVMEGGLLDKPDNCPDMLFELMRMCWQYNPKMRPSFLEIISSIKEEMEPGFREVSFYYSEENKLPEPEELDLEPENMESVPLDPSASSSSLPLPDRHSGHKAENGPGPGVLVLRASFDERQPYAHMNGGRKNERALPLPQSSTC
As to the kind of experiment: IGF1R kinase assay (LCCA), IGF 3P. It counts as biochemical. The procedure, abridged: (§1)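 Baculovirus-expressed human IGF1R kinase domain (M954-C1367), 4 nM, with 3 μM ATP and 4 μM poly EY in Tris-HCl pH 7.5 buffer containing MgCl2 and MnCl2, 2 h at ambient temperature. Remaining ATP read by luciferase chemiluminescence; IC50 from 10-point dose-response fitted to a four-parameter equation.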

Test [1] has as its target T2, (Homo sapiens, UniProt P08069).
T2 construct: human IGF1R kinase domain residues M954-C1367; made in house; host or cells: baculovirus expression (insect cells)
As to the kind of experiment: IGF1R kinase assay (LCCA), IGF 0P. The class given is biochemical. The method, boiled down:
as §1

T2 sequence (P08069 954-1367): as above

As for `Cc1cc(Nc2cc(C3CC3)[nH]n2)nc(NCc2cc(-c3ccc(F)cc3F)no2)n1` [Example 622, N^4-(5-cyclopropyl-1H-pyrazol-3-yl)-N^2-{[3-(2,4-difluorophenyl)isoxazol-5-yl]methyl}-6-methylpyrimidine-2,4-diamine], the figures for the IC50 (on IGF 3P; in test [1]) were under 50 nM and 50 to 500 nM, respectively.
The like results for `Cc1cc(Nc2cc(C3CC3)[nH]n2)nc(NCc2cc(-c3cnccn3)no2)n1` [Example 623, N^4-(5-cyclopropyl-1H-pyrazol-3-yl)-6-methyl-N^2-[(3-pyrazin-2-ylisoxazol-5-yl)methyl]pyrimidine-2,4-diamine] were, in that order, under 50 nM and 50 to 500 nM.
With `Clc1c(Nc2cc(C3CC3)n[nH]2)nc(NCc2cc(-c3ccccc3)no2)nc1N1CCOCC1` [Example 624, 5-chloro-N^4-(3-cyclopropyl-1H-pyrazol-5-yl)-6-morpholin-4-yl-N^2-[(3-phenylisoxazol-5-yl)methyl]pyrimidine-2,4-diamine], the IC50 (on IGF 3P; in test [1]) was 50 to 500 nM throughout.
On to `CN1CCN(c2nc(NCc3cc(-c4ccccc4)no3)nc(Nc3cc(C4CC4)n[nH]3)c2Cl)CC1` [Example 625, 5-chloro-N^4-(3-cyclopropyl-1H-pyrazol-5-yl)-6-(4-methylpiperazin-1-yl)-N^2-[(3-phenylisoxazol-5-yl)methyl]pyrimidine-2,4-diamine], for which the IC50 (at IGF 3P; in test [1]) was 50 to 500 nM in each case.
As to `Cc1cc(Nc2cc(N3CCN(C)CC3)nc(NCc3cc(C)no3)n2)[nH]n1` [Example 626, N^2-[(3-methylisoxazol-5-yl)methyl]-6-(4-methylpiperazin-1-yl)-N^4-(3-methyl-1H-pyrazol-5-yl)pyrimidine-2,4-diamine], the IC50 fell in the range of 50 to 500 nM against IGF 3P and 500 to 5000 nM in test [1].
On the same counts, the results for `Cc1cc(Nc2cc(N3CCOCC3)nc(NCc3cc(C)no3)n2)[nH]n1` [Example 627, N^2-[(3-methylisoxazol-5-yl)methyl]-N^4-(3-methyl-1H-pyrazol-5-yl)-6-morpholin-4-ylpyrimidine-2,4-diamine] are 50 to 500 nM and 500 to 5000 nM.
On the same counts, the results for `CN1CCN(c2cc(Nc3cc(C4CC4)[nH]n3)nc(NCc3cc(-c4ccncn4)no3)n2)CC1` [Example 628, N^4-(5-cyclopropyl-1H-pyrazol-3-yl)-6-(4-methylpiperazin-1-yl)-N^2-[(3-pyrimidin-4-ylisoxazol-5-yl)methyl]pyrimidine-2,4-diamine] are under 50 nM and 50 to 500 nM.
The like results for `CN1CCN(c2cc(Nc3cc(C4CC4)[nH]n3)nc(NCc3cc(-c4ccoc4)no3)n2)CC1` [Example 629, N^4-(5-cyclopropyl-1H-pyrazol-3-yl)-N^2-[(3-furan-3-ylisoxazol-5-yl)methyl]-6-(4-methylpiperazin-1-yl)pyrimidine-2,4-diamine] were, in that order, under 50 nM and 50 to 500 nM.
On to `Cc1cc(CNc2nc(Nc3cc(C4CC4)[nH]n3)cc(NC3CC4CCC(C3)N4C)n2)on1` (stereo not shown) [Example 630, N^4-(5-cyclopropyl-1H-pyrazol-3-yl)-N^6-(8-methyl-8-azabicyclo[3.2.1]oct-3-yl)-N^2-[(3-methylisoxazol-5-yl)methyl]pyrimidine-2,4,6-triamine], for which the IC50 on IGF 3P was under 50 nM; in test [1], 50 to 500 nM.
On the same counts, the results for `Cc1cc(CNc2nc(Nc3cc(C4CC4)[nH]n3)cc(N3CC4CC3CN4C)n2)on1` (stereo not shown) [Example 631, N^4-(5-cyclopropyl-1H-pyrazol-3-yl)-6-(5-methyl-2,5-diazabicyclo[2.2.1]hept-2-yl)-N^2-[(3-methylisoxazol-5-yl)methyl]pyrimidine-2,4-diamine] are under 50 nM and 50 to 500 nM.
The like results for `Cc1cc(CNc2nc(Nc3cc(C4CC4)[nH]n3)cc(NC3CC4CCC3C4)n2)on1` (stereo not shown) [Example 634, N^4-bicyclo[2.2.1]hept-2-yl-N^6-(5-cyclopropyl-1H-pyrazol-3-yl)-N^2-[(3-methylisoxazol-5-yl)methyl]pyrimidine-2,4,6-triamine] were, in that order, under 50 nM and 50 to 500 nM.
The like results for `Cc1cc(CNc2nc(Nc3cc(C4CC4)[nH]n3)cc(N3C[C@H]4C[C@@H]3CN4Cc3ccccc3)n2)on1` [Example 635, N^4-(5-cyclopropyl-1H-pyrazol-3-yl)-N^2-[(3-methylisoxazol-5-yl)methyl]-6-[(1R,4R)-5-(phenylmethyl)-2,5-diazabicyclo[2.2.1]hept-2-yl]pyrimidine-2,4-diamine] were, in that order, under 50 nM and 50 to 500 nM.
For the molecule `CC(C)c1cc(CNc2nc(Nc3cc(C4CC4)[nH]n3)cc(N3C[C@H]4C[C@@H]3CN4Cc3ccccc3)n2)on1` [Example 636, N^4-(5-cyclopropyl-1H-pyrazol-3-yl)-N^2-{[3-(1-methylethyl)isoxazol-5-yl]methyl}-6-[(1R,4R)-5-(phenylmethyl)-2,5-diazabicyclo[2.2.1]hept-2-yl]pyrimidine-2,4-diamine], the IC50 against IGF 3P (IGF 3P) is under 50 nM; in test [1] (IGF 0P) it was 50 to 500 nM.
For the molecule `c1cc(-c2cc(CNc3nc(Nc4cc(C5CC5)[nH]n4)cc(N4CCOCC4)n3)on2)ncn1` [Example 637, N^4-(5-cyclopropyl-1H-pyrazol-3-yl)-6-morpholin-4-yl-N^2-[(3-pyrimidin-4-ylisoxazol-5-yl)methyl]pyrimidine-2,4-diamine], the IC50 is under 50 nM against IGF 3P and 50 to 500 nM in test [1].
On the same counts, the results for `CN(C)CCOc1cc(Nc2cc(C3CC3)[nH]n2)nc(NCc2cc(-c3ccncn3)no2)n1` [Example 638, N^4-(5-cyclopropyl-1H-pyrazol-3-yl)-6-{[2-(dimethylamino)ethyl]oxy}-N^2-[(3-pyrimidin-4-ylisoxazol-5-yl)methyl]pyrimidine-2,4-diamine] are under 50 nM and 50 to 500 nM.
On the same counts, the results for `Cc1cc(Nc2cc(C3CC3)[nH]n2)nc(NCc2cc(-c3ccc(F)cn3)no2)n1` [Example 639, N^4-(5-cyclopropyl-1H-pyrazol-3-yl)-N^2-{[3-(5-fluoropyridin-2-yl)isoxazol-5-yl]methyl}-6-methylpyrimidine-2,4-diamine] are 500 to 5000 nM and 500 to 5000 nM.
The like results for `CN1CCN(c2cc(Nc3cc(C4CC4)[nH]n3)nc(NCc3cc(-c4cccs4)no3)n2)CC1` [Example 640, N^4-(5-cyclopropyl-1H-pyrazol-3-yl)-6-(4-methylpiperazin-1-yl)-N^2-{[3-(2-thienyl)isoxazol-5-yl]methyl}pyrimidine-2,4-diamine] were, in that order, under 50 nM and 50 to 500 nM.
As for `CN(C)CCOc1cc(Nc2cc(C3CC3)[nH]n2)nc(NCc2cc(-c3ccccn3)no2)n1` [Example 641, N^4-(5-cyclopropyl-1H-pyrazol-3-yl)-6-{[2-(dimethylamino)ethyl]oxy}-N^2-[(3-pyridin-2-ylisoxazol-5-yl)methyl]pyrimidine-2,4-diamine], the IC50 was under 50 nM against IGF 3P and 50 to 500 nM in test [1].
On the same counts, the results for `CN1CCN(c2cc(Nc3cc(C4CC4)n[nH]3)nc(NCc3cc(-c4cncnc4)no3)n2)CC1` [Example 642, N^4-(3-cyclopropyl-1H-pyrazol-5-yl)-6-(4-methylpiperazin-1-yl)-N^2-[(3-pyrimidin-5-ylisoxazol-5-yl)methyl]pyrimidine-2,4-diamine] are under 50 nM and 50 to 500 nM.
The like results for `c1ncc(-c2cc(CNc3nc(Nc4cc(C5CC5)n[nH]4)cc(N4CCOCC4)n3)on2)cn1` [Example 643, N^4-(3-cyclopropyl-1H-pyrazol-5-yl)-6-morpholin-4-yl-N^2-[(3-pyrimidin-5-ylisoxazol-5-yl)methyl]pyrimidine-2,4-diamine] were, in that order, 50 to 500 nM and 50 to 500 nM.
Turning to `Cc1cc(CNc2nc(Nc3cc(C4CC4)[nH]n3)cc(OCCN3CCCC3)n2)on1` [Example 647, N^4-(5-cyclopropyl-1H-pyrazol-3-yl)-N^2[(3-methylisoxazol-5-yl)methyl]-6-[(2-pyrrolidin-1-ylethyl)oxy]pyrimidine-2,4-diamine], the IC50 was under 50 nM on IGF 3P and 50 to 500 nM in test [1].
Consider `CN1CCN(c2cc(Nc3cc(C4CC4)[nH]n3)nc(NCc3cc(-c4nccs4)no3)n2)CC1` [Example 648, N^4-(5-cyclopropyl-1H-pyrazol-3-yl)-6-(4-methylpiperazin-1-yl)-N^2-{[3-(1,3-thiazol-2-yl)isoxazol-5-yl]methyl}pyrimidine-2,4-diamine], for which the IC50 is under 50 nM on IGF 3P and 50 to 500 nM in test [1].
The like results for `Cc1cc(Nc2cc(OCCN(C)C)nc(NCc3cc(C)no3)n2)[nH]n1` [Example 650, 6-{[2-(dimethylamino)ethyl]oxy}-N^2-[(3-methylisoxazol-5-yl)methyl]-N^4-(3-methyl-1H-pyrazol-5-yl)pyrimidine-2,4-diamine] were, in that order, 500 to 5000 nM and 500 to 5000 nM.
Regarding `CCc1cc(CNc2nc(Nc3cc(C4CC4)n[nH]3)cc(N3CCN(C)CC3)n2)on1` [Example 655, N^4-(3-cyclopropyl-1H-pyrazol-5-yl)-N^2-[(3-ethylisoxazol-5-yl)methyl]-6-(4-methylpiperazin-1-yl)pyrimidine-2,4-diamine], the IC50 against IGF 3P is under 50 nM; in test [1], 50 to 500 nM.
The like results for `CCc1cc(CNc2nc(Nc3cc(C4CC4)n[nH]3)cc(N3CCOCC3)n2)on1` [Example 656, N^4-(3-cyclopropyl-1H-pyrazol-5-yl)-N^2-[(3-ethylisoxazol-5-yl)methyl]-6-morpholin-4-ylpyrimidine-2,4-diamine] were, in that order, under 50 nM and 50 to 500 nM.
As to `CCc1cc(CNc2nc(Nc3cc(C4CC4)n[nH]3)cc(OCCN(C)C)n2)on1` [Example 657, N^4-(3-cyclopropyl-1H-pyrazol-5-yl)-6-{[2-(dimethylamino)ethyl]oxy}-N^2-[(3-ethylisoxazol-5-yl)methyl]pyrimidine-2,4-diamine], the figures for the IC50 (at IGF 3P; in test [1]) were under 50 nM and 50 to 500 nM, respectively.
